IC50 and viability, T/C data for five compounds are collected here from PubChem BioAssay AID1918999 (Molecular Pharmacology Branch, DTP, NCI, 2023).

This assay concerns 556581-035-R-J1-PDC complex spheroid growth. As to the kind of experiment: Anticancer human tumor 556581-035-R-J1-PDC patient-derived ovarian carcinoma cell line growth inhibition [AhR]. Particulars: for viability, T/C: stronger effect = lower value. In outline:
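Agents were dosed in half-log steps down from roughly clinical Cmax, or from 10 microM where Cmax was unknown, alone and with AhR antagonists. Read-out: percent test/control growth of tumor spheroids containing HUVEC and MSC stromal cells.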

Setting [1] is: curve of first compound, second compound 0.1 µM.
Setting [2] is: curve of first compound, second compound 0.316 µM.
[3] abbreviates: curve of first compound, second compound 1 µM.
Setting [4] is: curve of first compound, second compound 3.16 µM.
The mark [5] stands for this setting: curve of first compound, second compound 10 µM.
The mark [6] stands for this setting: second compound 0.1 µM, first compound 0.0316 µM.
The mark [7] stands for this setting: second compound 0.1 µM, first compound 0.1 µM.
The mark [8] stands for this setting: second compound 0.1 µM, first compound 0.316 µM.
Setting [9] is: second compound 0.1 µM, first compound 1 µM.
Setting [10] is: second compound 0.1 µM, first compound 3.16 µM.
Where [11] appears, read: second compound 0.1 µM, first compound 10 µM.
Setting [12] is: second compound 0.316 µM, first compound 0.0316 µM.
The mark [13] stands for this setting: second compound 0.316 µM, first compound 0.1 µM.
Where [14] appears, read: second compound 0.316 µM, first compound 0.316 µM.
[15] abbreviates: second compound 0.316 µM, first compound 1 µM.
Setting [16] is: second compound 0.316 µM, first compound 3.16 µM.
[17] abbreviates: second compound 0.316 µM, first compound 10 µM.
[18] abbreviates: second compound 1 µM, first compound 0.0316 µM.
The mark [19] stands for this setting: second compound 1 µM, first compound 0.1 µM.
The mark [20] stands for this setting: second compound 1 µM, first compound 0.316 µM.
[21] abbreviates: second compound 1 µM, first compound 1 µM.
Setting [22] is: second compound 1 µM, first compound 3.16 µM.
Where [23] appears, read: second compound 1 µM, first compound 10 µM.
The mark [24] stands for this setting: second compound 3.16 µM, first compound 0.0316 µM.
Where [25] appears, read: second compound 3.16 µM, first compound 0.1 µM.
Where [26] appears, read: second compound 3.16 µM, first compound 0.316 µM.
[27] abbreviates: second compound 3.16 µM, first compound 1 µM.
Setting [28] is: second compound 3.16 µM, first compound 3.16 µM.
The mark [29] stands for this setting: second compound 3.16 µM, first compound 10 µM.
[30] abbreviates: second compound 10 µM, first compound 0.0316 µM.
The mark [31] stands for this setting: second compound 10 µM, first compound 0.1 µM.
Where [32] appears, read: second compound 10 µM, first compound 0.316 µM.
Where [33] appears, read: second compound 10 µM, first compound 1 µM.
Setting [34] is: second compound 10 µM, first compound 3.16 µM.
Where [35] appears, read: second compound 10 µM, first compound 10 µM.

Structures are written as SMILES. Several values for one entry are separate records, joined by “and”; a condition that tells them apart may be missing. Equal values may be shown once.
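Wherever viability, T/C is given: compound exposure lasted 7 days; 100% = DMSO vehicle control growth.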

As to `NS(=O)(=O)OCC1CC(n2ccc3c(NC4CCc5ccccc54)ncnc32)CC1O` (centres undefined) + CC(CO)NC(=O)c1cc(-c2ccc(Cl)cc2)nn(-c2cnn(C)c2)c1=O, the concentration for half-maximal inhibition (IC50) is above 10000 nM under setting [1]; above 10000 nM under setting [2]; above 10000 nM under setting [3]; above 10000 nM under setting [4]; above 10000 nM under setting [5]. For the same compound, the viability, T/C by setting is: under setting [6], 98.2%; under setting [7], 108%; under setting [8], 112%; under setting [9], 107%; under setting [10], 107%; under setting [11], 86.9%. The viability, T/C runs as follows: under setting [12], 107%; under setting [13], 121%; under setting [14], 97.1%; under setting [15], 104%; under setting [16], 109%; under setting [17], 78.9%. The viability, T/C is, setting by setting: under setting [18], 106%; under setting [19], 118%; under setting [20], 104%; under setting [21], 111%; under setting [22], 88.3%; under setting [23], 86.7%. In addition, the viability, T/C is, setting by setting: under setting [24], 101%; under setting [25], 111%; under setting [26], 103%; under setting [27], 106%; under setting [28], 99.8%; under setting [29], 89.5%. For the same compound, the viability, T/C by setting is: under setting [30], 95.8%; under setting [31], 109%; under setting [32], 115%; under setting [33], 109%; under setting [34], 121%; under setting [35], 96.7%.
With `Nc1ncn(C2CC(O)C(CO)O2)c(=O)n1` (centres undefined), the viability, T/C (compound 0.00316 µM) is 90.6% and 101% and 102%; the viability, T/C (compound 0.01 µM) was 101% (2×) and 105%; the viability, T/C (compound 0.0316 µM) is 91.6% and 90.4% and 90.8%; the viability, T/C (compound 0.1 µM) is 95.1% and 95.6% and 86.2%; the viability, T/C (compound 0.316 µM) was 95.8% and 81.7% and 82.5%; the viability, T/C (compound 1 µM) was 83.9% and 75.5% and 76.9%. For the same compound, the IC50 (curve of compound) is above 1000 nM.
With `CC(C)CC(NC(=O)C(Cc1ccccc1)NC(=O)c1cnccn1)B(O)O` (centres undefined) + Cc1ccccc1N=Nc1ccc(NC(=O)c2ccnn2C)c(C)c1, the half-maximal inhibitory concentration (IC50) reads like this: under setting [1], 5.78 nM; under setting [2], 5.73 nM; under setting [3], 5.9 nM; under setting [4], 5.64 nM; under setting [5], 5.97 nM. In addition, the viability, T/C is, setting by setting: (second compound 0.1 µM, first compound 0.000949 µM) 91.6%; (second compound 0.1 µM, first compound 0.003 µM) 117%; (second compound 0.1 µM, first compound 0.00949 µM) 8.91%; (second compound 0.1 µM, first compound 0.03 µM) 0.21%; (second compound 0.1 µM, first compound 0.0949 µM) 0.17%; (second compound 0.1 µM, first compound 0.3 µM) 0.27%. Further, the viability, T/C by setting is: (second compound 0.316 µM, first compound 0.000949 µM) 97.2%; (second compound 0.316 µM, first compound 0.003 µM) 105%; (second compound 0.316 µM, first compound 0.00949 µM) 10.2%; (second compound 0.316 µM, first compound 0.03 µM) 0.34%; (second compound 0.316 µM, first compound 0.0949 µM) 0.22%; (second compound 0.316 µM, first compound 0.3 µM) 0.22%. Besides, the viability, T/C was 90.2% (second compound 1 µM, first compound 0.000949 µM); 115% (second compound 1 µM, first compound 0.003 µM); 13.2% (second compound 1 µM, first compound 0.00949 µM); 0.19% (second compound 1 µM, first compound 0.03 µM); 0.16% (second compound 1 µM, first compound 0.0949 µM); 0.26% (second compound 1 µM, first compound 0.3 µM). The viability, T/C is, setting by setting: (second compound 3.16 µM, first compound 0.000949 µM) 88.2%; (second compound 3.16 µM, first compound 0.003 µM) 100%; (second compound 3.16 µM, first compound 0.00949 µM) 13.6%; (second compound 3.16 µM, first compound 0.03 µM) 0.16%; (second compound 3.16 µM, first compound 0.0949 µM) 0.17%; (second compound 3.16 µM, first compound 0.3 µM) 0.22%. Besides, the viability, T/C runs as follows: (second compound 10 µM, first compound 0.000949 µM) 82.3%; (second compound 10 µM, first compound 0.003 µM) 89.1%; (second compound 10 µM, first compound 0.00949 µM) 25.9%; (second compound 10 µM, first compound 0.03 µM) 0.35%; (second compound 10 µM, first compound 0.0949 µM) 0.31%; (second compound 10 µM, first compound 0.3 µM) 0.28%.
For the compound `COc1cc(C2c3cc4c(cc3C(OC3OC5COC(C)OC5C(O)C3O)C3COC(=O)C23)OCO4)cc(OC)c1O` (centres undefined) + Cc1ccccc1N=Nc1ccc(NC(=O)c2ccnn2C)c(C)c1, the half-inhibitory concentration (IC50) by setting is: under setting [1], above 10000 nM; under setting [2], above 10000 nM; under setting [3], above 10000 nM; under setting [4], above 10000 nM; under setting [5], above 10000 nM. Further, the viability, T/C by setting is: under setting [6], 109%; under setting [7], 101%; under setting [8], 85.4%; under setting [9], 71%; under setting [10], 68.8%; under setting [11], 52.5%. Further, the viability, T/C is 110% under setting [12]; 106% under setting [13]; 85.1% under setting [14]; 75.7% under setting [15]; 71.5% under setting [16]; 51.4% under setting [17]. The viability, T/C is, setting by setting: under setting [18], 95.9%; under setting [19], 106%; under setting [20], 92.1%; under setting [21], 69.7%; under setting [22], 66.5%; under setting [23], 53.9%. Besides, the viability, T/C by setting is: under setting [24], 91.9%; under setting [25], 104%; under setting [26], 94.2%; under setting [27], 72%; under setting [28], 62.5%; under setting [29], 58.7%. Also, the viability, T/C under setting [30] was 93.2%; the viability, T/C under setting [31] is 98%; the viability, T/C under setting [32] is 89.5%; the viability, T/C under setting [33] is 75.8%; the viability, T/C under setting [34] was 69.7%; the viability, T/C under setting [35] is 56.8%.
In the case of `COc1cccc2c1C(=O)c1c(O)c3c(c(O)c1C2=O)CC(O)(C(=O)CO)CC3OC1CC(N)C(O)C(C)O1` (centres undefined), the viability, T/C (compound 0.0316 µM) is 90.7% and 86.7% and 84.5%; the viability, T/C (compound 0.1 µM) is 89% and 78.2% and 76.5%; the viability, T/C (compound 0.316 µM) is 58.8% and 57.2% and 55%; the viability, T/C (compound 1 µM) is 9.14% and 19.1% and 19.5%; the viability, T/C (compound 3.16 µM) was 1.93% and 3.75% and 4.65%; the viability, T/C (compound 10 µM) is 3.8% and 2.01% and 3.67%. Further, the IC50 (curve of compound) is 388 nM and 386 nM and 366 nM.

What is called IC50 is the concentration at which inhibition is half-maximal. As usually defined, the viability, T/C is the result in the treated group divided by that in the control group, in per cent.
